The values below come from patent US12310970B2, “Compounds and methods for treating or preventing anterior segment ocular disorders and/or retinal degenerations” (YALE UNIVERSITY, priority 2018, dated 2025).

SMILES strings stand for the structures. “Also recorded” adds a separate entry of the source. Structures can show the parent of a compound that is named as a salt.

What all share (format): cell-based
For experiment [1], the system named is Human ARPE-19 cells. Briefly: TBHP-induced oxidative stress cell viability assay (RealTime-Glo) in ARPE-19. The settings on record: for protection from oxidative stress-induced cell death: 0.9 μM 24 h preincubation, 400 μM TBHP 24 h; for protection from TBHP-induced cell death in screen of 65,000 compound Chemical Diversity library: initial high-throughput screening. As to the method:
Immortalized human RPE cells (ARPE-19) obtained from the American Type Culture Collection (ATCC, Manassas, VA, USA) were cultured in Dulbecco's modified Eagle's medium (DMEM; Thermo Fisher Scientific, Waltham, MA) containing 10% fetal bovine serum (FBS), 100 IU/mL penicillin, 100 μg/mL streptomycin, 100 μg/mL gentamicin, and 2.5 μg/mL amphotericin B (Thermo Fisher Scientific).
Human ARPE-19 cells were plated in 96-well plates for 24 hours in DMEM supplemented with FBS and antibiotics. ARPE-19 cells were preincubated with either ciclopirox olamine (Sigma), compound 414 (Chemical Diversity, San Diego, CA), compound 434 (Chemical Diversity) or no compound for 24 hours and then exposed to varying concentrations of tert-butyl hydroperoxide (TBHP; Sigma-Aldrich, St. Louis, MO) the next day for 24 hours. Cell viability was measured the following day by RealTime-Glo™ MT cell viability assay (Promega, Madison, WI) using a BioTek FLx800™ fluorescence reader (BioTek, Winooski, VT).
Initial screening of a library with 640 FDA-approved drugs (Enzo Life Sciences FDA-approved drug library) with known bioactivity, safety & bioavailability, and natural products was performed using TBHP, a chemical oxidizing agent, as a model of oxidative stress-induced cell death.
Initial screening of a library with 65,000 synthetic compounds (Chemical Diversity library) using tert-butyl hydroperoxide (TBHP), a chemical oxidizing agent, as a model of oxidative stress-induced cell death.

Experiment [2] has as its system Human ARPE-19 cells. Briefly: Mitochondrial respiration (Seahorse XF, oxygen consumption rate) after TBHP in ARPE-19. As for the experimental part:
(§1) Analysis of mitochondrial function was performed on live cells using XFe96 Extracellular Flux Analyzer (Seahorse Bioscience) using the cell mito stress test (CMST). Human ARPE-19 cells or iPSC-derived RPE were seeded in a 96 well plate and grown for 24 h. Cells were preincubated with compound or no compound for 24 hours and then exposed to varying concentrations of TBHP the next day for 24 hours. Cells were the washed with CMST assay medium (XF base medium DMEM supplemented with 2 mM glutamine, 5.5 mM glucose, and 1 mM sodium pyruvate, pH 7.4), and then incubated in CMST medium for 1 h at 37° C. in a non-CO2 incubator. The CMST assay protocol was performed by manufacturer guidance (Seahorse Bioscience). Oxygen consumption rate (OCR) was detected under basal conditions followed by the sequential addition of oligomycin, carbonyl cyanide 4-(trifluoromethoxy) phenylhydrazone (FCCP), as well as rotenone and antimycin A. The measured parameters include: basal respiration, adenosine triphosphate (ATP) production, maximal respiration, spare respiratory capacity.
Human ARPE-19 cells were preincubated with 3 μM ciclopirox olamine for 18 hours, then treated with 500 μM TBHP for 24 hours and oxygen consumption rate determined using the Seahorse XF analyzer.
The effects of compound treatment on mitochondrial function in human RPE cells were investigated. Human ARPE-19 cells were preincubated with 0.6 μM of compound 414 or compound 434 for 18 hours, then treated with 300 μM TBHP for 24 hours and oxygen consumption rate determined using the Seahorse XF analyzer.

For experiment [3], the system named is Human ARPE-19 cells. Briefly: UV-B radiation damage in ARPE-19. The settings on record: then 1200 mJ/cm^2 UV-B. As to the method: Human ARPE-19 cells were plated in 96-well plates for 24 hours in DMEM supplemented with FBS and antibiotics. ARPE-19 cells were preincubated with compound or no compound for 24 hours and then exposed to 1200 mJ/cm^2 ultraviolet B (UV-B) radiation in a chamber. Cell viability was measured the following day by […] MT cell viability assay (Promega) using a BioTek FLx800™ fluorescence reader (BioTek, Winooski, VT).
Human ARPE-19 cells were then preincubated with 3 μM of ciclopirox olamine for 24 hours and then exposed to 1200 mJ/cm^2 of UV-B radiation. Ciclopirox olamine protects human ARPE-19 cells exposed to 1200 mJ/cm^2 UV-B radiation (FIG. 6).
To confirm the results using TBHP, another model of oxidative stress in which human RPE cells are exposed to UV-B light was employed. […] Human ARPE-19 cells were then preincubated with 0.6 μM of compound 414 and compound 434 for 24 hours and then exposed to 1200 mJ/cm^2 of UV-B radiation. Compound 414 and compound 434 protective human ARPE-19 cells exposed to 1200 mJ/cm^2 UV-B radiation (FIG. 11).

The test system of experiment [4] is Human iPSC-derived RPE cells. Briefly: Mitochondrial respiration (Seahorse XF) after TBHP in iPSC-derived RPE. As for the experimental part:
Human iPSC-derived RPE cells were preincubated with 3 μM ciclopirox olamine for 18 hours, then treated with 500 μM tert-butyl hydroperoxide (TBHP) for 24 hours. Oxygen consumption rate was determined using the Seahorse XF analyzer to measure mitochondrial function. FIG. 7A depicts basal respiration. FIG. 7B depicts maximal oxygen consumption rate (OCR). FIG. 7C depicts spare respiratory capacity. FIG. 7D depicts ATP production.
Human iPSCs were derived from fibroblasts of a donor with no history of retinal disease. A skin specimen was processed as previously described. Briefly, the skin biopsy was transplanted onto a culture plate and fibroblasts were grown to confluence and then treated with four Yamanaka factors, Oct3/4, Sox-2, Klf4, and c-Myc using the CytoTune™-iPS 2.0 Sendai Reprogramming Kit according to the manufacturer's instructions (Invitrogen-Gibco, Life Technologies=) (31-36). Newly generated iPSC colonies were purified and expanded using MTeSR1™ media (Stem Cell Technologies, Vancouver, Canada).
Human iPSCs were differentiated to iPSC-derived RPE cells as previously described. Human iPSC colonies were lifted and grown as embryoid bodies (EBs) for 4 days in EB formation medium (STEMCELL Technologies). After 5 days, EB medium was replaced with neural induction medium (NIM) containing DMEM/F12 (1:1), 1% N-2 supplement (MEM non-essential amino acids and 2 μg/mL heparin) and suspended EB aggregates were plated onto laminin-coated culture plates and allowed to reattach. After 16 days, neural induction medium was replaced with retinal differentiation medium (RDM) containing DMEM/F12 (3:1), 2% B-27 supplement (Invitrogen-Gibco, Life Technologies), MEM non-essential amino acids and penicillin/streptomycin. The adherent culture was maintained in RDM until the appearance of pigmented iPSC-derived RPE cells. Patches of pigmented iPSC-derived RPE cells were then micro-dissected and cultured on Transwell® plates with RDM+10% fetal bovine serum (FBS) for 2 days and then switched to RDM with 2% FBS until the cells were confluent. Human iPSC-derived RPE cells were then maintained in RDM and allowed to form monolayers within 90 days.
as §1
Human iPSC-derived RPE cells were preincubated with 0.6 μM of compound 414 or compound 434 for 18 hours, then treated with 300 μM TBHP for 24 hours and oxygen consumption rate determined using the Seahorse XF analyzer.

Where [5] appears, read: 3 μM 18 h, then 500 μM TBHP 24 h, vs TBHP-treated group.
The mark [6] stands for this setting: 3 μM 18 h, then 500 μM TBHP 24 h.
Where [7] appears, read: 0.6 μM 18 h, then 300 μM TBHP 24 h.

On to `Cc1cc(C2CCCCC2)n(O)c(=O)c1` [ciclopirox olamine, 6-cyclohexyl-1-hydroxy-4-methyl-2(1H)-pyridone, ethanolamine salt, reference compound], for which the “cell viability after challenge with TBHP (luminescence); protection from oxidative stress-induced cell death” value in the experiment with Human ARPE-19 cells [1] (ARPE-19, ciclopirox olamine preincubation 24 h, then TBHP 24 h (FIG. 1: 0.9 μM, 300 μM TBHP)) was “protects; also recorded: significantly enhances cell viability”. Also, the “protection from TBHP-induced cell death in screen of 640 FDA-approved drug library” value with Human ARPE-19 cells [1] (ARPE-19, initial library screening) is given as “significantly protects”. In addition, the “cell viability, treatment alone compared to no treatment” value with Human ARPE-19 cells [1] (human RPE cells, ciclopirox olamine alone, no TBHP) was “significantly enhances cell viability”. Moreover, in the experiment on Human ARPE-19 cells [2] (setting [5]), the ATP turnover entry is on record as “significantly increased”, the basal respiration result was “significantly increased”, the “maximal OCR” value is on record as “significantly increased” and the reserve capacity result is reported as “significantly increased”. Besides, the “protection from UV-B radiation damage” value with Human ARPE-19 cells [3] (3 μM 24 h) was “protects”. In experiment [4] (setting [6]), the ATP production entry is given as “significantly increased”, the basal respiration entry is recorded as “significantly increased”, the “maximal OCR” value is “significantly increased” and the reserve capacity entry is given as “significantly increased”.

Turning to `CCc1cccc(C)c1Nc1c(-c2cc(Br)ccc2O)nc2nc(C)cc(C)n12` [compound 434], in the experiment with Human ARPE-19 cells [1] (ARPE-19), the “protection from oxidative stress-induced cell death” value is “Protective effects” and the “protection from TBHP-induced cell death in screen of 65,000 compound Chemical Diversity library” value is recorded as “significantly protects”. In the experiment on Human ARPE-19 cells [2] (setting [7]), the ATP production entry is “significantly increased”, the basal respiration entry was “significantly increased”, the “maximal OCR” value is on record as “significantly increased” and the reserve capacity result is listed as “significantly increased”. The “protection from UV-B radiation damage” value in the experiment with Human ARPE-19 cells [3] (0.6 μM 24 h) is given as “protective”. In experiment [4] (setting [7]), the ATP production result is “significantly increased” and the basal respiration result is “significantly increased”.

As to `CCc1cccc(C)c1Nc1c(-c2cc(Br)ccc2O)nc2ncccn12` [compound 414], in the experiment with Human ARPE-19 cells [1] (ARPE-19), the “protection from oxidative stress-induced cell death” value was “Protective effects” and the “protection from TBHP-induced cell death in screen of 65,000 compound Chemical Diversity library” value is listed as “significantly protects”. In the experiment on Human ARPE-19 cells [1] (ARPE-19, compound preincubation, TBHP 24 h (FIG. 8: 0.6 μM, 300 μM TBHP)), the “cell viability after challenge with TBHP (luminescence); protection from oxidative stress-induced cell death” value was “protects; also recorded: significantly enhances cell viability”. In the experiment on Human ARPE-19 cells [2] (setting [7]), the ATP production entry is on record as “significantly increased”, the basal respiration result is listed as “significantly increased”, the “maximal OCR” value is “significantly increased” and the reserve capacity entry is given as “significantly increased”. Further, the “protection from UV-B radiation damage” value in the experiment with Human ARPE-19 cells [3] (0.6 μM 24 h) is recorded as “protective”. In experiment [4] (setting [7]), the ATP production result is on record as “significantly increased”, the basal respiration result is given as “significantly increased”, the “maximal OCR” value is “significantly increased” and the reserve capacity result is on record as “significantly increased”.
